These results are taken from PMC2902587 (International journal of pharmaceutics, 2010).

Each structure is given as a SMILES string. Values after ≈ are worked out from the molar mass of the structure shown. Bounds are passed on as bounds.

Data set [1] concerns the target T1, P-gp (human MDR1) (Homo sapiens, UniProt P08183). Kind of data set: in vitro. The note with it: MDCK-MDR1, pH 7.4.
The target in data set [2] is T1, P-gp (human MDR1). The note with it: MDCKII-MDR1 monolayers.
The subject of data set [3] is MRP2. As to the kind of experiment: Bidirectional [14C] erythromycin transport across MDCK-MRP2 cell monolayers. It is filed as cell-based, human. The note with it: human, pH 7.4.
Data set [4] deals with T2, MRP2 (Homo sapiens, UniProt Q92887). The data set is described as above. It is filed as cell-based.
The target in data set [5] is T2, MRP2. As to the kind of experiment: [14C] erythromycin uptake in MDCK-MRP2 cells. It is filed as cell-based.
A further data set relates to P-gp. The note with it: rat endothelial cell line (RBMEC); ref Li et al. 2009; cited from earlier work.
The next data set concerns many bacterial species. The note with it: cited from earlier work.
Data set [6] concerns MDCKII-MDR1, MDCK-MRP2 and MDCK-BCRP cells. As to the kind of experiment: ATP activity assay in MDCK cell lines. The note with it: all MDCK cell lines, 30 min treatment, 0.75, 1.25, 2.5 and 5mM. It is filed as cell-based, dog.
The target of a further data set is T3, BCRP (Homo sapiens, UniProt Q9UNQ0).
T3 sequence (Q9UNQ0 1-655): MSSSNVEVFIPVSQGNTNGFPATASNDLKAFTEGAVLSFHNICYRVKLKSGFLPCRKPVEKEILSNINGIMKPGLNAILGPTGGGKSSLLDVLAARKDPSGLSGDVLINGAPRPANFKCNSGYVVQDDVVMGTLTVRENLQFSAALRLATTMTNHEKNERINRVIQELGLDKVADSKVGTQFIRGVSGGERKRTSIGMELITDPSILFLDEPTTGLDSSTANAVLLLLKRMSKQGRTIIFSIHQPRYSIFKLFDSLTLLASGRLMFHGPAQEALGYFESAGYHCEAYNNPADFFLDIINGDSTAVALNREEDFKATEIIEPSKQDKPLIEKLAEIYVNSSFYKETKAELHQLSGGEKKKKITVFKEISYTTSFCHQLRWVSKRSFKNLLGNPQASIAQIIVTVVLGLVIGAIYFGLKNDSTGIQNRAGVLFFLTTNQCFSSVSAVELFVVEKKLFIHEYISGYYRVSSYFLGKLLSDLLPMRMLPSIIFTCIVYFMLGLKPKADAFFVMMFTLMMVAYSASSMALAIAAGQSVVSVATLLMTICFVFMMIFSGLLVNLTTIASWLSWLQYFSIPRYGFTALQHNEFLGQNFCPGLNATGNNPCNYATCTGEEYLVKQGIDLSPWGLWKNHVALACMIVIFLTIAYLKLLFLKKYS
Kind of data set: Accumulation of Hoechst 33342 in MDCK-BCRP cells. The note with it: gatifloxacin 0.5, 1, 2.5, 5 and 10 mM, Hoechst 33342 5μM. It is filed as cell-based.

The target in data set [7] is T1, P-gp (human MDR1). Kind of data set: [14C] erythromycin uptake in MDCKII-MDR1 cells. It is filed as cell-based.

T2 sequence (Q92887 whole entry): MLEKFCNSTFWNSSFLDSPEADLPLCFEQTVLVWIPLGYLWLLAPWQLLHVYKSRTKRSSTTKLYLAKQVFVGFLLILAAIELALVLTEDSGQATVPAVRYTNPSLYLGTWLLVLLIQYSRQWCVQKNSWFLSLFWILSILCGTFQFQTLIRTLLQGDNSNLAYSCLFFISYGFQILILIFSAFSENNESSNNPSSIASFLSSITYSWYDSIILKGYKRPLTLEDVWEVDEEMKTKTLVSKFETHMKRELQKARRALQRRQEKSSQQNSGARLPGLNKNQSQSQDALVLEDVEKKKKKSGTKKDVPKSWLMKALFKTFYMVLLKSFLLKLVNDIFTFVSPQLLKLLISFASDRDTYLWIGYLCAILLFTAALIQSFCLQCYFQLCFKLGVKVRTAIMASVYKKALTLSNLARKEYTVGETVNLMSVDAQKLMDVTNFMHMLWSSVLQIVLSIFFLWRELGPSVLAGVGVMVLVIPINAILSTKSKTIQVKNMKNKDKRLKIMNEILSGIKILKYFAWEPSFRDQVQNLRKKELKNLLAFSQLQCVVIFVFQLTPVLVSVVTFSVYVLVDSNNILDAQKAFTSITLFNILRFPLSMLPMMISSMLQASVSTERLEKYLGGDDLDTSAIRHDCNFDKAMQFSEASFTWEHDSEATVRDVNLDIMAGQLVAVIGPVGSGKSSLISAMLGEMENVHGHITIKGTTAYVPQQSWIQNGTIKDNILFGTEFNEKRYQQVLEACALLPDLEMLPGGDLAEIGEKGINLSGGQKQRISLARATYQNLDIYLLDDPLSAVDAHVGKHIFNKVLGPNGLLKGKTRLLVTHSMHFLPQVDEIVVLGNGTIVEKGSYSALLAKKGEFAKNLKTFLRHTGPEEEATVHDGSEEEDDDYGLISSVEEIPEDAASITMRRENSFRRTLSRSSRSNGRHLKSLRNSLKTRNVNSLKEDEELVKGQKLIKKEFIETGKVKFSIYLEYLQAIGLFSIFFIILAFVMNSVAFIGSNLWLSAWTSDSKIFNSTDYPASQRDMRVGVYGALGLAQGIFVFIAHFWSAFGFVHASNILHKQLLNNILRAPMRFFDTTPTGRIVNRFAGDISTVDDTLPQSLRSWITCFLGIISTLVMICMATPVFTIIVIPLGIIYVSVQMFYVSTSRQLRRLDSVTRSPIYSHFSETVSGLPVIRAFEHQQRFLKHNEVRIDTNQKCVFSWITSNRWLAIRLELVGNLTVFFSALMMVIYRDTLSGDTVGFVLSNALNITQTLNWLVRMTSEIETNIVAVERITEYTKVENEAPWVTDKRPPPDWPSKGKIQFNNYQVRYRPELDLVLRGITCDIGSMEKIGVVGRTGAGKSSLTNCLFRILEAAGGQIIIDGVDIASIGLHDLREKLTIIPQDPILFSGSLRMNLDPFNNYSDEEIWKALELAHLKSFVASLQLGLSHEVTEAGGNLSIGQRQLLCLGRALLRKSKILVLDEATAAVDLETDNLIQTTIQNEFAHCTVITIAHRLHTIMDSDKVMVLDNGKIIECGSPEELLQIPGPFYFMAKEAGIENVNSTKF
T1 sequence (P08183 whole entry): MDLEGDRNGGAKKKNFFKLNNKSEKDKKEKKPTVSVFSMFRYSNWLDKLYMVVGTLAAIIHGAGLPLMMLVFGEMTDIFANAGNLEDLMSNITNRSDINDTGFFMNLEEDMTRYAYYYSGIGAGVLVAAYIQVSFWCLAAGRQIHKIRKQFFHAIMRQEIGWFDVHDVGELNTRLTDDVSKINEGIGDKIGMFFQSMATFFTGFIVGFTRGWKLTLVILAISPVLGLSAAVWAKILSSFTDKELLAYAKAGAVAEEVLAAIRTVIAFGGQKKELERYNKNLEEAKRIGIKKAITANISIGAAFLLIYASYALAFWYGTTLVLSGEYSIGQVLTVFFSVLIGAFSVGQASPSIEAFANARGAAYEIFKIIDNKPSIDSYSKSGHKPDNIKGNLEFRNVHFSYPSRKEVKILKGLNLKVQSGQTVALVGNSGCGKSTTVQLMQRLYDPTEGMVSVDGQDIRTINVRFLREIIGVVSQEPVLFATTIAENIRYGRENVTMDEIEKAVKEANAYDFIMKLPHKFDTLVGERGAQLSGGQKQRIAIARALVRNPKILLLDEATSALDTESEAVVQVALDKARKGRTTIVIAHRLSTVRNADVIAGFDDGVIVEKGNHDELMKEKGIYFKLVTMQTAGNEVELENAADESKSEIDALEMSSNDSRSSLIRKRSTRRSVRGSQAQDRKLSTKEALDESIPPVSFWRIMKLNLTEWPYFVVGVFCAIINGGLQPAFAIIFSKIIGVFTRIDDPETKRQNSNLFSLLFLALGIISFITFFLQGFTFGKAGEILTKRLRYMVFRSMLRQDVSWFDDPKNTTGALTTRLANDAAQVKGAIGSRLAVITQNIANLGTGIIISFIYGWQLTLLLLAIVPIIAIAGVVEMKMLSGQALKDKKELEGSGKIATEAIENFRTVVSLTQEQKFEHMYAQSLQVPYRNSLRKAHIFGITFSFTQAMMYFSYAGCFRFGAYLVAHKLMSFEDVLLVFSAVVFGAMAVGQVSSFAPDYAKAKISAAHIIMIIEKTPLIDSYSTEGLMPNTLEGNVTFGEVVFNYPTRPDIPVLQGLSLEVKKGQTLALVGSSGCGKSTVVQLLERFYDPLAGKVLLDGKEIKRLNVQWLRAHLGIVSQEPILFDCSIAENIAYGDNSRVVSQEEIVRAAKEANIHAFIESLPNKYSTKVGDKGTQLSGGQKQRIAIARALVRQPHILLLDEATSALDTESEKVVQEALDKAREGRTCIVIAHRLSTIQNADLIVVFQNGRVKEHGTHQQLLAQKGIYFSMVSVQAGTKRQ

The efflux ratio is a quotient of directional permeabilities that is used to spot active efflux. For `CC[C@H]1OC(=O)[C@H](C)[C@@H](O[C@H]2C[C@@](C)(OC)[C@@H](O)[C@H](C)O2)[C@H](C)[C@@H](O[C@@H]2O[C@H](C)C[C@H](N(C)C)[C@H]2O)[C@](C)(O)C[C@@H](C)C(=O)[C@H](C)[C@@H](O)[C@]1(C)O` [[^14C] erythromycin, erythromycin], the efflux ratio at 3 h on P-gp (human MDR1) [1] is 7.2; in the data set on MRP2 [3], above 7; on MRP2 [4] (human, pH 7.4) it was 5.3. In addition, the “Papp of [14C] erythromycin in B-A direction relative to AP-BL direction” value on P-gp (human MDR1) [2] (erythromycin alone) is “more than fivefold higher”.
One may read the IC50 as the midpoint of a concentration-inhibition curve. Read a low IC50 as inhibition by little substance. In general, Ki refers to a dissociation constant, usually derived from enzyme kinetics or from competition with a known ligand. Low readings indicate higher affinity, high ones lower affinity. `CN(C)C(=O)CCSC(SCCC(=O)O)c1cccc(/C=C/c2ccc3ccc(Cl)cc3n2)c1` (stereo not drawn) [MK571]: at MRP2 [5], it took 188 ± 28.2 µM to reach half-maximal inhibition (IC50) and the Ki amounted to 175 ± 18.2 µM. Besides, at MRP2 [5] (MDCK-MRP2 cells, 100 μM MK571, 30 min), the “Uptake of [14C] erythromycin higher by” value came to 177%.
Take `COc1c(N2CCNC(C)C2)c(F)cc2c(=O)c(C(=O)O)cn(C3CC3)c12` (stereo not drawn) [gatifloxacin]: the “Involvement of P-gp in the translocation of gatifloxacin” value in the data set with P-gp is “did not find any significant involvement”. For the same compound, the “Effect on efflux ratio of [14C] erythromycin” value was “progressively decrease and approach unity” on P-gp (human MDR1) [2] (increasing concentrations of gatifloxacin); “continuously became lower and approached unity” on MRP2 [4] (MDCK-MRP2 monolayers, increasing concentrations of gatifloxacin). Moreover, in the data set with many bacterial species (against many bacterial species, introduction, no reference given), the “Minimum inhibitory concentration (MIC)” value was 0.1 µg/mL (≈ 0.266 µM). Besides, the “Activity relative to the other quinolones” value in the data set with many bacterial species (ref Ba et al. 2006) is recorded as “two- to fourfold more active”. Moreover, the “ATP activity of treated cells compared to vehicle control” value in data set [6] is given as “No significant difference”. Also, the “Effect on Hoechst 33342 uptake” value at BCRP was “not found to be significantly different”. Besides, the half-inhibitory concentration (IC50) at MRP2 [5] was 5230 ± 390 µM; against P-gp (human MDR1) [7], 359 ± 90.1 µM. The Ki on MRP2 [5] was found to be 5370 ± 218 µM; on P-gp (human MDR1) [7] it was 385 ± 88.6 µM.
